Here are results for three molecules from ChEMBL document CHEMBL1158678, “Two new mono-tetrahydrofuran ring acetogenins, annomuricin E and muricapentocin, from the leaves of Annona muricata” (J Nat Prod, 1998).

Values after ≈ are worked out from the molar mass of the structure shown.

For one data set, the system named is MIA PaCa-2. In words: Cytotoxicity against human MIAPaCa2 cells after 7 days by MTT assay. The class given is functional. As to conditions: MIA PaCa-2, 168 h, read-out: ED50 (the source's name). On the technique in general: Formazan colour is commonly taken as a measure of viable cells.
Data set [1] is described as follows: Toxicity against Artemia salina. It is filed as organism-based. Particulars: in vivo, read-out: ED50 (the source's name).
In a further data set the test system is MCF7. In words: Cytotoxicity against human MCF7 cells after 7 days by MTT assay. Particulars: MCF7, 168 h, read-out: ED50 (the source's name). The class given is functional.
In the next data set the test system is A498. In words: Cytotoxicity against human A498 cells after 7 days by MTT assay. It is filed as functional. As to conditions: A498, 168 h, read-out: ED50 (the source's name).
A further data set concerns PC-3. Kind of data set: Cytotoxicity against human PC3 cells after 7 days by MTT assay. It is filed as functional. As to conditions: PC-3, 168 h, read-out: ED50 (the source's name).
The test system of a further data set is HT-29. In words: Cytotoxicity against human HT-29 cells after 7 days by MTT assay. The class given is functional. As to conditions: HT-29, 168 h, read-out: ED50 (the source's name).
The next data set relates to A549. Kind of data set: Cytotoxicity against human A549 cells after 7 days by MTT assay. The class given is functional. Particulars: A549, 168 h, read-out: ED50 (the source's name).

For `CCCCCCCCCCCC[C@@H](O)[C@H]1CC[C@H]([C@H](O)CCC(O)CCCC(O)CCC[C@@H](O)CC2=C[C@H](C)OC2=O)O1` (stereo not given in full) [MURICAPENTOCIN], the EC50 was determined as 0.0503 µg/mL (≈ 0.0821 µM) in the data set on MIA PaCa-2; 1.9 µg/mL (≈ 3.1 µM) with MCF7; 1.72 µg/mL (≈ 2.81 µM) in the data set with A498; 0.45 µg/mL (≈ 0.734 µM) in the data set with PC-3; 0.071 µg/mL (≈ 0.116 µM) in the data set with HT-29; 0.193 µg/mL (≈ 0.315 µM) with A549. Besides, the LC50 in data set [1] was 1.86 µg/mL (≈ 3.03 µM).

In the case of `COc1cccc2c1C(=O)c1c(O)c3c(c(O)c1C2=O)C[C@@](O)(C(=O)CO)C[C@@H]3O[C@H]1C[C@H](N)[C@H](O)[C@H](C)O1` [DOXORUBICIN], the EC50 in the data set on MIA PaCa-2 is 0.00456 µg/mL (≈ 0.00839 µM); in the data set with MCF7, 0.124 µg/mL (≈ 0.228 µM); in the data set with A498, 0.0158 µg/mL (≈ 0.0291 µM); in the data set with PC-3 it was 0.0355 µg/mL (≈ 0.0653 µM); in the data set with HT-29 it was 0.0381 µg/mL (≈ 0.0701 µM); in the data set on A549, 0.00294 µg/mL (≈ 0.00541 µM).

In the case of `CCCCCCCCCCCC[C@@H](O)[C@H]1CC[C@H]([C@H](O)CCC[C@@H](O)[C@@H](O)CCCCC[C@@H](O)CC2=C[C@H](C)OC2=O)O1` [ANNOMURICIN E], the EC50 with MIA PaCa-2 was determined as 0.0242 µg/mL (≈ 0.0395 µM); with MCF7, 1.45 µg/mL (≈ 2.37 µM); in the data set with A498, 1.41 µg/mL (≈ 2.3 µM); in the data set on PC-3, 0.146 µg/mL (≈ 0.238 µM); with HT-29 it was 0.0668 µg/mL (≈ 0.109 µM); with A549, 0.112 µg/mL (≈ 0.183 µM). The LC50 in data set [1] came to 11.8 µg/mL (≈ 19.3 µM).
